Values of other authors, collected in US20220117915A1, “METHODS OF TREATING ACUTE STRESS DISORDER AND POSTTRAUMATIC STRESS DISORDER” (Tonix Pharma Holdings Limited, priority 2018, published 2022).

Experiments:
[1] = ASD or very early PTSD
[2] = target: serotonergic-2A (5-HT2A) receptor (Homo sapiens, UniProt P28223)
[3] = target: alpha-adrenergic-1A (α1A) receptor (Homo sapiens, UniProt P35348)
alpha-adrenergic-1A (α1A) receptor, sequence (P35348 whole entry): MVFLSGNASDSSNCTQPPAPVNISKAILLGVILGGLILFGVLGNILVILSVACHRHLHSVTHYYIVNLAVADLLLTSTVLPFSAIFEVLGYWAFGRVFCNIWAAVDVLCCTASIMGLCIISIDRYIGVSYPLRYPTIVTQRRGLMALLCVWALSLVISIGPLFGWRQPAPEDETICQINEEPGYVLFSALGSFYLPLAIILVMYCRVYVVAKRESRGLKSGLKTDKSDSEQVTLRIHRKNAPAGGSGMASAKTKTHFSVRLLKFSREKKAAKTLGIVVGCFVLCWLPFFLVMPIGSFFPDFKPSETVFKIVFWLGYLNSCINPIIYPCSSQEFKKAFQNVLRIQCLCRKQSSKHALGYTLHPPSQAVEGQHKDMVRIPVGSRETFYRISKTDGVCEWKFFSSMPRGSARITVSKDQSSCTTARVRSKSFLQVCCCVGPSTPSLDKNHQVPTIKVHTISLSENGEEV

serotonergic-2A (5-HT2A) receptor, sequence (P28223 whole entry, species assumed): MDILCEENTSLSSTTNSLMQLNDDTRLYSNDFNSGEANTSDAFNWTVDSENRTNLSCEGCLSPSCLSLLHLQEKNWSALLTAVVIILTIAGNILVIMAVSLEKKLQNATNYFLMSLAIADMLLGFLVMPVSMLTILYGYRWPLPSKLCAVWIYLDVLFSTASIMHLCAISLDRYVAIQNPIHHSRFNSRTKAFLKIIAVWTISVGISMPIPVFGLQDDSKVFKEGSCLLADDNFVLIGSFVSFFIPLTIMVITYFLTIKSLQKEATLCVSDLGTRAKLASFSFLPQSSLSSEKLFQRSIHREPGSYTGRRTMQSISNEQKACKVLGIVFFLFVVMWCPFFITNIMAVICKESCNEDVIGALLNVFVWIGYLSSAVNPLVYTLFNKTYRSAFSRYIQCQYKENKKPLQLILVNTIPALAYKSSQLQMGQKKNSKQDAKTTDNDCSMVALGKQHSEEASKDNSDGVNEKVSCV

## CN(C)CCC[C@@]1(c2ccc(F)cc2)OCc2cc(C#N)ccc21 [escitalopram]
[1]
  preventing development of PTSD versus placebo: failed to perform any better than the placebo

## Fc1ccc([C@@H]2CCNC[C@H]2COc2ccc3c(c2)OCO3)cc1 [paroxetine]
long-standing PTSD, average of 15 years since the trauma
  efficacy as a PTSD treatment: offered patients with long-standing PTSD relief
Trauma more than 5 years prior to treatment versus more recent trauma
  improvement by time since trauma: greater improvement

## CN(C)CCC=C1c2ccccc2C=Cc2ccccc21 [Cyclobenzaprine, 3-(5H-dibenzola[a,d]cyclohepten-5-ylidene)-N,N-dimethyl-1 propanamine]
[2]
  5-HT2A receptor antagonist activity: potent
[3]
  α1A receptor antagonist activity: potent
